Values after ≈ are worked out from the molar mass of the structure shown. Like-named read-outs stand apart in the source and are kept apart here.
What was measured:
Toxoplasma gondii RH-GFP = test: In vitro growth inhibition assay (RH-GFP fluorescence in infected HFF cells); type: cell-based; details: for inhibition at 50 µg/mL / IC50: Toxoplasma gondii; for inhibition at 50 µg/mL: HFF, read-out: % Parasite inhibition (mean ± s.d.); for IC50: read-out: IC50 (anti-toxoplasmosis activity)
Procedure: Briefly, HFF cells were seeded into 96-well plates (1 × 10^4 cells/well) and cultured for 48 h. Expressing green fluorescent protein (GFP) type I strain RH (RH-GFP) tachyzoites (Nishikawa et al. [2003]) were added to the wells (5 × 10^4 tachyzoites/well). After a 4-h incubation, extracellular parasites were removed by washing. Then, chemical compounds at a final concentration of 50 µg/mL were added. […] After a 72-h incubation, the fluorescence intensity of RH-GFP was measured to determine the parasite growth. Compounds with parasite inhibition ≥ 80% were further screened for dose–response effects at final concentrations of 3.125 µg/mL, 6.25 µg/mL, 12.5 µg/mL, 25 µg/mL and 50 µg/mL.

[1] = Cytotoxicity analysis on HFF cells (CCK-8); type: cell-based, human; details: human, human foreskin fibroblasts (HFF) cells; test compounds at 50 µg/mL
Procedure: (§1) The cytotoxicity of the chemical compounds on human foreskin fibroblasts (HFF) cells was determined by using the cell counting kit-8 (CCK-8) (Dojindo Molecular Technologies, Inc. Japan) according to the manufacturer’s instructions. The compounds were dissolved in dimethyl sulfoxide (DMSO). HFF cells were plated in 96-well plates at a density of 1 × 10^4 cells per well. After a 48-h incubation at 37 °C in a 5% CO2 atmosphere, cells were exposed to various concentrations of tested chemical compounds (1 µg/mL, 5 µg/mL, 10 µg/mL, 25 µg/mL, 50 µg/mL and 100 µg/mL). Culture medium containing the same volume of DMSO was used as a negative control. After 24 h, the surviving cells were determined by adding CCK-8 reagent. Cell viability was measured based on the absorbance at 450 nm after an additional 4-h incubation.

Vero cell viability = type: cell-based; details: African green monkey, Vero cells; test compounds at 100 µg/mL
Description: (§2) TABLE 2 Screening of chemical compounds for anti-RH-GFP efficacy. | column: % viability Vero ^¶

[2] = system: human foreskin fibroblasts (HFF) cells; test: Cytotoxicity analysis on HFF cells (CCK-8); type: cell-based; details: for Effect on host cell viability / growth: HFF cells, 0-100 µg/mL, 24 h
Procedure: as §1

[3] = system: Toxoplasma gondii RH-GFP tachyzoites; type: cell-based; details: for Activity against extracellular and intracellular parasites: invasion and replication tests, FJS-302 10 µg/mL, FJS-303 and FJS-403 12.5 µg/mL, SFZ 1 mg/mL; for Infection rate (SAG1-positive Vero cells per 100 Vero cells): non-treated 11.3% ± 0.6%
Procedure: Vero cells were seeded on 12-well plates as described here, and purified RH-GFP tachyzoites were treated with FJS-302, FJS-303, FJS-403 or FJS-INH for 1 h at 37 °C. Then treated parasites were added to Vero cells in a 12-well plate (2 × 10^5 tachyzoites per well). At 2 h postinfection, the extracellular parasites were removed by washing, and the infected Vero cells were further incubated for 24 h at 37 °C in a 5% CO2 incubator. After incubation, IFAT was conducted as described here to evaluate the effects of the chemical compounds on parasite invasion. The infection rates were calculated as follows: [number of SAG1-positive Vero cells]/[100 randomly selected Vero cells]×100 [Eqn 1]
In addition, at least 10 fields were observed per group to measure the average number of parasites per field.

[4] = system: Toxoplasma gondii PruΔku80Δhxgprt; test: Bradyzoite differentiation assay (Vero cells, IFAT); type: cell-based; details: 48 h; for Antitachyzoite activity: PruΔku80Δhxgprt; for Bradyzoite number: compounds 50 µg/mL (Figure 4 legend)
Procedure: Vero cells were plated in 12-well plates at a density of 1 × 10^5 cells per well and incubated for 24 h at 37 °C in a 5% CO2 atmosphere. Then, purified PruΔku80Δhxgprt tachyzoites were added to Vero cells at 1 mL/well (parasites per host cell ratio = 1:1). Two hours postinfection, chemical compounds were added in EMEM supplemented with 8% FBS. Indirect fluorescent antibody test was conducted after a 48-h incubation. Tachyzoites were stained by using anti-SAG1 mouse polyclonal antibody (Guo et al. [2019]), and bradyzoites were detected by using anti-GFP rabbit polyclonal antibody (Medical & Biological Laboratories CO., LDT, Japan). Secondary antibody Alexa Fluor 594-conjugated goat anti-mouse IgG (Invitrogen, United States) diluted 1:1000 and Alexa Fluor 488-conjugated goat anti-Rabbit IgG (Invitrogen, United States) diluted 1:1000 were used. Five fields per well were observed by using an All-in-one Fluorescence Microscope (BZ-9000, Keyence, Japan), and the percentage of bradyzoites was calculated.

Vero cells = test: Vero cell viability; type: cell-based; details: sulphadiazine at 1 mg/mL
Description: as §2

[5] = system: Toxoplasma gondii RH strain; details: ref De Oliveira et al. [2009]; cited from earlier work
HFF cells = details: 200 µg/mL of SFZ; ref De Oliveira et al. [2009]; cited from earlier work
[6] = 72 h, test compounds at 50 µg/mL, 72 h, RH-GFP-infected HFF cells
[7] = RH-GFP-infected HFF cells, 72 h, 3.125-50 µg/mL
[8] = test compounds at 50 µg/mL, 72 h, RH-GFP-infected HFF cells
[9] = parasites pretreated with 12.5 µg/mL
[10] = parasites pretreated with 12.5 µg/mL for 1 h

| SMILES | inhibition at 50 µg/mL (Toxoplasma gondii RH-GFP; [6]) [%] | viability at 24 h, 50 µg/mL [1] [%] | viability at 100 µg/mL (Vero cell viability) [%] | IC50 (Toxoplasma gondii RH-GFP; [7]) [µg/mL] | % Parasite inhibition (mean ± s.d.) (Toxoplasma gondii RH-GFP; [8]) [%] | Effect on host cell viability / growth [2] | Activity against extracellular and intracellular parasites [3] | Antitachyzoite activity [4] | other results |
| --- | --- | --- | --- | --- | --- | --- | --- | --- | --- |
| CCCCCCCCCCc1cn(Cc2ccc(Br)cc2)nn1 [FJS-104] | 62.2 ± 6 | 100 | 103 |  |  |  |  |  |  |
| Brc1ccc(Cn2cc(CSc3ccccc3)nn2)cc1 [FJS-105] | 60.5 ± 6.1 | 100 | 103 |  |  |  |  |  |  |
| CCCCc1cn(Cc2ccccc2)nn1 [FJS-201] | 64.6 ± 6.8 | 100 | 99.3 |  |  |  |  |  |  |
| c1ccc(Cn2cc(CSc3ccccc3)nn2)cc1 [FJS-205] | 60.2 ± 5.1 | 100 | 101 |  |  |  |  |  |  |
| CCCCc1cn(Cc2ccc(C)cc2)nn1 [FJS-301] | 57.7 ± 3 | 96.2 | 85.4 |  |  |  |  |  |  |
| CCCCCCc1cn(Cc2ccc(C)cc2)nn1 [FJS-302] | > 80 | 85 | 86.1 | 5.6 (≈ 21.8 µM) | 95.9 ± 4.6 | no significant suppression on host cell growth | effective against extra- and intracellular parasites | significant antitachyzoite activity | Number of parasites per field after pretreatment ([3]; parasites pretreated with 10 µg/mL): significantly reduced; Infection rate (SAG1-positive Vero cells per 100 Vero cells) ([3]; parasites pretreated with 10 µg/mL for 1 h): 6.2% ± 0.5%; Bradyzoite number [4]: did not increase the bradyzoite number |
| CCCCCCCCc1cn(Cc2ccc(C)cc2)nn1 [FJS-303] | > 80 | 110 | 101 | 6.8 (≈ 23.8 µM) | 96.3 ± 3.9 | no significant suppression on host cell growth | effective against extra- and intracellular parasites | significant antitachyzoite activity | Number of parasites per field after pretreatment [3, 9]: significantly reduced; Infection rate (SAG1-positive Vero cells per 100 Vero cells) [3, 10]: 5.8% ± 0.5%; Bradyzoite number [4]: did not increase the bradyzoite number |
| CCCCCCCCc1cn(Cc2ccc(C(F)(F)F)cc2)nn1 [FJS-403] | > 80 | 103 | 102 | 7 (≈ 20.6 µM) | 91.5 ± 1.7 | no significant suppression on host cell growth | effective against extra- and intracellular parasites | significant antitachyzoite activity | Number of parasites per field after pretreatment [3, 9]: significantly reduced; Infection rate (SAG1-positive Vero cells per 100 Vero cells) [3, 10]: 5.2% ± 0.7%; Bradyzoite number [4]: did not increase the bradyzoite number |
| CCCCCCCCCCc1cn(Cc2ccc(C(F)(F)F)cc2)nn1 [FJS-404] | 64.5 ± 1.8 | 100 |  |  |  |  |  |  |  |
| FC(F)(F)c1ccc(Cn2cc(CSc3ccccc3)nn2)cc1 [FJS-405] | 35 ± 5 | 100 | 103 |  |  |  |  |  |  |
| NNC(=O)c1ccncc1 [FJS-INH, isoniazid, reference compound] | > 80 | 118 | 98 | 19.8 (≈ 144 µM) | 87.2 ± 4.6 | no significant suppression on host cell growth |  | significant antitachyzoite activity | Potency relative to the leading BnTz derivative (Toxoplasma gondii RH-GFP; T. gondii growth inhibition, from IC50): threefold less potent; Infection rate (SAG1-positive Vero cells per 100 Vero cells) ([3]; parasites pretreated with 50 µg/mL for 1 h): 10.7% ± 0.5% |
| Nc1ccc(S(=O)(=O)Nc2ncccn2)cc1 [SFZ, sulphadiazine, reference compound] |  |  |  |  |  |  | affected only intracellular parasite |  | IC50 (anti-toxoplasmosis activity) (Toxoplasma gondii RH-GFP; [7]): 59.5 µg/mL (≈ 238 µM); % Parasite inhibition (mean ± s.d.) (Toxoplasma gondii RH-GFP; sulphadiazine at 1 mg/mL, 72 h, RH-GFP-infected HFF cells): 73.7 ± 4.6%; % viability HFF ([2]; sulphadiazine at 1 mg/mL): 105.19%; % viability Vero (Vero cells): 92.11%; Infection rate (SAG1-positive Vero cells per 100 Vero cells) ([3]; parasites pretreated with 1 mg/mL for 1 h): 11.7% ± 1.3%; Bradyzoite number (GFP-positive parasitophorous vacuoles per field) ([4]; SFZ 1 mg/mL, no treatment 6.5 ± 1.5): 23.7 ± 6.0; Bradyzoite rate (bradyzoite differentiation) ([4]; SFZ 1 mg/mL, no treatment 8.2% ± 1.9%): 46.6% ± 7.9%; IC50 of SFZ on RH strain [5]: 70 µg/mL; Decrease of viability of HFF cells (HFF cells): 28% |

— PMC8252180, “In vitro anti-Toxoplasma gondii efficacy of synthesised benzyltriazole derivatives” (The Onderstepoort Journal of Veterinary Research, 2021)
